For data set [1], the system named is H1N1 (influenza virus). The note with it: H1N1 in host cell MDCK.
Data set [2] concerns H3N2 (influenza virus). The settings on record: H3N2 in host cell MDCK.
Data set [3] concerns H3N2 (influenza virus). Briefly: microbe, parasite or virus in culture. The settings on record: Influenza A virus, H3N2, MDCK.
The nature of data set [4]: in vitro. The note with it: dog.
Data set [5] relates to H1N1 (influenza virus). Briefly: microbe, parasite or virus in culture. The settings on record: Influenza A virus, H1N1, MDCK.
The subject of data set [6] is JEV (Japanese encephalitis virus). Briefly: Inhibition of viral replication (CPE) at cellular level, JEV in Vero. The settings on record: for SI (TC50/IC50): JEV in host cell Vero; for IC50: Japanese encephalitis virus, Vero.
For data set [7], the system named is Dengue Virus 2 (type 2 dengue virus). Briefly: Inhibition of viral replication (CPE) at cellular level, Dengue Virus 2 in Vero. The class given is cell-based. The settings on record: Dengue Virus 2 in host cell Vero; for IC50: CPE. The source says: Activity Test for Inhibition of Viral Replication at Cellular Level […]
The present inventors tested inhibitory effects of the compound of the present invention on cytopathic effects (CPE) caused by viral infection on mammalian cells.
Half-inhibitory concentration IC50 and half toxic concentration TC50 of the compound against Dengue Virus 2 (type 2 dengue virus) in host cell Vero (African green monkey kidney cell).

The test system of data set [8] is EV71 (hand-foot-and-mouth virus). The note with it: for SI (TC50/IC50): EV71 in host cell RD.
Data set [9] in a line: Determination of TC50 (half toxicity concentration) in RD cells. The class given is cell-based. The settings on record: human, host cell RD, EV71 table.
For data set [10], the system named is H7N9 (influenza virus). Briefly: microbe, parasite or virus in culture. The note with it: Influenza A virus, H7N9, MDCK.
The test system of data set [11] is Zika Virus. Briefly: Inhibition of viral replication (CPE) at cellular level, Zika Virus in Vero. The settings on record: for SI (TC50/IC50): Zika Virus in host cell Vero; for IC50: Zika virus, Vero.
Data set [12] relates to H7N9 (influenza virus). The settings on record: H7N9 in host cell MDCK.
The test system of data set [13] is EV71 (hand-foot-and-mouth virus). Briefly: microbe, parasite or virus in culture. The settings on record: Enterovirus A.
The nature of data set [14]: in vitro. The note with it: African green monkey.
The subject of data set [15] is RSV (human respiratory syncytial virus). The experiment in a line: Inhibition of viral replication (CPE) at cellular level, RSV in Vero. The note with it: for SI (TC50/IC50): RSV in host cell Vero; for IC50: human respiratory syncytial virus, Vero.
Data set [16] concerns influenza virus. Briefly: microbe, parasite or virus in culture. The class given is cell-based. The settings on record: unidentified influenza virus, MDCK, read-out: inhibitory effect on influenza virus.
In data set [17] the test system is H7N9 avian influenza virus. It is filed as in vivo. The note with it: lethal dose H7N9 (1MLD50) nasal, Compound 16 10 mg/kg, Oseltamivir 20 mg/kg, intraperitoneal, once a day for first 5 days, FIG. 4.
Setting [18] is: TC50, host cell Vero, Dengue Virus 2 table.
Setting [19] is: TC50, host cell Vero, RSV table.
The mark [20] stands for this setting: TC50, host cell Vero, Zika Virus table.

Where only a bound is given, the exact number is not on record here.

In the case of `O=C(O)c1cc(F)c(F)cc1/C=N/Nc1nc(-c2ccccc2Cl)cs1` [Compound 23-1], the “SI (TC50/IC50)” value in data set [1] turned out to be 300; in [2], 477; in data set [6] it was 124; in [7], 200; in data set [8] it was 5.4; in data set [11], 262. Besides, the figures for the “SI (TC50/IC50)” value in data set [12] and in [15] were 152 and 19, respectively. The IC50 in data set [3] came to 260 nM; in data set [5], 670 nM; in data set [6] it was 290 nM; in [7], 390 nM; in data set [10] it was 670 nM; in data set [11] it was 290 nM. The IC50 was found to be 370 nM in [13] and 5670 nM in [15]. In addition, the CC50 in data set [4] (TC50) was determined as 124000 nM; in data set [9] it was 2000 nM; in data set [14] it was 36000 nM; in data set [14] (setting [18]), 78000 nM; in [14] (setting [19]) it was 101000 nM; in data set [14] (setting [20]), 76000 nM.

With `O=C(O)c1ccccc1/C=N/Nc1nc(-c2ccccc2Cl)cs1` [Compound 16, (E)-4-(2-chlorophenyl)-2-(2-carboxybenzylidenehydrazino)thiazole], the “SI (TC50/IC50)” value in [1] is on record as greater than 100; in data set [2], greater than 250; in data set [6], 100; in [7] it was 167; in data set [8] it was 3.3; in data set [11], 133. In addition, the “SI (TC50/IC50)” value in [12] is greater than 41.7; in data set [15], 4. Also, the IC50 in data set [16] is roughly 2000 nM; in data set [3], 200 nM; in data set [5], 500 nM; in data set [6] it was 200 nM; in data set [7] it was 120 nM; in [10] it was 1200 nM. The IC50 was determined as 150 nM in data set [11], 300 nM in [13] and 5000 nM in data set [15]. For the same molecule, the CC50 was greater than 50000 nM in [4]; 1000 nM in data set [9]; 20000 nM in data set [14] (setting [18]); 20000 nM in data set [14] (setting [19]); 20000 nM in data set [14] (setting [20]). Moreover, the “therapeutic effect, recovery in the body weight of infected mice” value in data set [17] was “therapeutic effects similar to the positive drug Oseltamivir”. Further, the “inhibitory effects on human respiratory syncytial virus RSV” value in data set [15] (FIG. 3) is “a certain inhibitory effects”.

In the case of `CN(/N=C/c1ccc(F)cc1C(=O)O)c1nc(-c2ccccc2Cl)cs1` [Compound 10, (E)-4-(2-chlorophenyl)-2-[1-methyl-2-(2-carboxyl-4-fluorobenzylidene)hydrazino]thiazole], the “SI (TC50/IC50)” value was determined as 233 in data set [1]; 320 in data set [2]; 216 in [6]; 460 in data set [7]; 10 in data set [8]; 350 in data set [11]. In addition, the “SI (TC50/IC50)” value is 161 in data set [12] and 3.6 in data set [15]. The IC50 in data set [3] turned out to be 100 nM; in [5], 210 nM; in [6], 60 nM; in data set [7], 50 nM; in data set [10], 280 nM; in [11], 60 nM. Besides, the IC50 in data set [13] was 50 nM; in data set [15], 5210 nM. For the same molecule, the CC50 in data set [4] (TC50) was determined as 32000 nM; in [9], 500 nM; in [14], 13000 nM; in [14] (setting [18]), 23000 nM; in data set [14] (setting [19]), 19000 nM; in data set [14] (setting [20]), 21000 nM. In addition, the “inhibitory effects on human hand-foot-mouth virus EV71” value in [8] (FIG. 2) is listed as “a certain inhibitory effects”.

As to `CCN(/N=C/c1ccccc1C(=O)O)c1nc(-c2ccccc2Cl)cs1` [Compound 2, (E)-4-(2-chlorophenyl)-2-[1-ethyl-2-(2-carboxybenzylidene)hydrazino]thiazole], the “SI (TC50/IC50)” value in data set [1] worked out at 8; in data set [2], 15; in data set [6], 45.7; in data set [7], 68.6; in data set [8], 4.3; in data set [11], 53. Also, the “SI (TC50/IC50)” value in [12] was 8; in data set [15] it was 4. Further, the IC50 in [3] is 1500 nM; in data set [5], 3690 nM; in [6], 350 nM; in data set [7], 350 nM; in data set [10], 5730 nM; in data set [11] it was 450 nM. Besides, the IC50 in data set [13] was determined as 230 nM; in [15], 7690 nM. In addition, the CC50 was 23000 nM in data set [4] (TC50); 1000 nM in [9]; 16000 nM in data set [14]; 24000 nM in [14] (setting [18]); 29000 nM in [14] (setting [19]); 24000 nM in [14] (setting [20]).

As for `O=C(O)c1cc(C(F)(F)F)ccc1/C=N/Nc1nc(-c2ccccc2Cl)cs1` [Compound 8-1], the “SI (TC50/IC50)” value in [1] was 138; in data set [2], 456; in data set [6] it was 156; in [7], 325; in [8], 10.5; in data set [11], 264. Besides, the results for the “SI (TC50/IC50)” value in [12] and in data set [15] were 117 and 14, respectively. Also, the IC50 in [3] worked out at 250 nM; in [5], 890 nM; in [6] it was 230 nM; in data set [7], 200 nM; in data set [10], 860 nM; in [11], 250 nM. The figures for the IC50 in data set [13] and in data set [15] were 190 nM and 8890 nM, respectively. Also, the CC50 was determined as 114000 nM in [4] (TC50); 2000 nM in [9]; 36000 nM in data set [14]; 65000 nM in data set [14] (setting [18]); 123000 nM in data set [14] (setting [19]); 66000 nM in data set [14] (setting [20]).
